# Residues, ends and D or L forms follow the SMILES beside them. *: point of attachment. Tos = Cc1ccc(S(=O)(=O)*)cc1
row,Compound,melting point [°C]
1,CC(C)CC1(CCCCCl)C(=O)Nc2c(Cl)cc(Cl)cc21 (stereo not given),93 to 94
2,O=c1c(O)nc2cccnc2n1-c1ccc(Cl)cc1,> 300
3,COc1ccc2cc(C(C)C)ccc2c1,63.5 to 64.5
4,CNC1CCN(c2c(F)cc3c(=O)c(C(=O)O)cn(C4CC4)c3c2C)CC1C (stereo not given),233 to 235
5,NC(=O)N(O)CC=Cc1ccc(Oc2ccccc2)o1,126 to 128
6,Cc1cc([N+](=O)[O-])cc(C)c1Cl,101 to 105
7,O=c1[nH]c2c(I)c(Cl)c(Cl)c(I)c2[nH]c1=O,353 to 354
8,CC(=O)NC[C@H]1CN(c2ccc(N3CCC(O)(CNC4CC4)CC3)c(F)c2)C(=O)O1,160 to 162
9,CC(=O)OC1CCC2(CO)C(CCC3C4=CCC(OC(=O)C(C)(C)C)C4(C)CCC32)C1 (stereo not given),133 to 134
10,Cc1nn(C)c(NCC(C)(C)C)c1N=O,83 to 84
11,CC(C)CC(=O)Nc1nc(-c2ccccc2)c(-c2ccc(=O)n(C(C)C)n2)s1,198 to 199
12,CCCCOc1c(CO)n(CC2CC2)c(=O)c2ccc(Br)cc12,111 to 112
13,Cc1c(C(=O)Nc2ccc(N3CCC(N4CCCCC4)CC3)c(C#N)c2)cnn1-c1ccc(F)cc1,237 to 238
14,FC(F)(F)C1(c2cc(Cl)cc(Cl)c2)CCN(c2ccc(-n3cnnn3)c(Br)c2)C1 (stereo not given),193 to 194
15,CCc1nc2c(-c3c(C)cc(C)cc3C)ncnc2n1Cc1ccccc1,121 to 122
16,O=C(O)c1cc2cc(OCCc3ccccc3)ccc2[nH]1,184 to 187
17,CN(c1cccc2cc(C3=NCC4(CCN(CC(C)(C)O)CC4)S3)[nH]c12)S(=O)(=O)c1cccs1,191
18,COc1ccc(COC(=O)CNC=S)cc1,107 to 108
19,CN(C)CC=Cc1ccc2c(c1)CCN2C(=O)c1ccc(-c2ccccc2)cc1,174 to 176
20,COc1cc(CCl)cc(OC)c1OCc1nc(-c2ccccc2)oc1C,118 to 119
21,O=C(O)Cc1ccc(OCCNC(=O)C2Cc3ccccc3N2S(=O)(=O)c2ccc(-c3ccc(F)cc3Cl)cc2)cc1 (stereo not given),90
22,CCCNC(=O)c1nc(CCl)n(-c2ccc(Cl)cc2C(=O)c2ccccc2Cl)n1,110 to 113

row,Compound,melting point [°C]
1,COc1ccc(-c2coc3ccc(-c4nnc(SCc5cccc(OC)c5)o4)cc23)cc1,118 to 119
2,NC(=O)/C=C/C1=CC=CC(F)(C(F)(F)F)C1 (stereo not given),121 to 122
3,CC(C)Oc1ccnc2[nH]ccc12,182 to 184
4,CC(C)(C)OC(=O)NC1C(=O)N(OCc2ccccc2)C12CCOCC2 (stereo not given),144 to 146
5,CC(=O)NCCOC(=O)C(Oc1ccc(F)c(C(F)(F)F)c1)c1ccc(Cl)cc1 (stereo not given),108
6,CCCCOc1nc(N)c2[nH]c(=O)n(CCSc3cccc(CC(=O)O)c3)c2n1,205 to 207
7,CCCCCCCCCCCCCCOc1cc(OCCCCCCc2cccc(O)c2O)cc(C(=O)OC)c1,77 to 79
8,O=C(O)Cc1c(C(=O)c2ccc(OC(F)(F)F)cc2)[nH]c2cc(Cl)ccc12,166 to 168
9,CCOC(=O)CN(CC(=O)OCC)C(=O)c1cc(OCCCCCCCCCCCCOc2ccccc2)ccc1OCc1ccccc1,49 to 50
10,CCN1CN2C(=N1)C(c1ccccc1Cl)=NCC1=C2S(=O)CC1 (stereo not given),199 to 200
11,C=CCN1CCN(C2=NC3(C=CC(=O)C=C3)C(Sc3ccccc3)=C2)CC1,175
12,Nc1nc(OC2CCCC2)c2ncn(C3C=CC(CO)C3)c2n1 (stereo not given),188 to 190
13,CC(C)(C)OC(=O)NC12CCC1CN(c1c(F)cc3c(=O)c(C(=O)O)cn(C4CC4)c3c1Cl)C2 (stereo not given),200 to 202
14,C=CC(=O)OCCCCCCC[C@H]1CC[C@H](c2cccc(F)c2F)CC1,34 to 35.3
15,CC(=O)Nc1nc(OS(=O)(=O)c2ccccc2)ncc1F,142 to 143
16,FC(F)(F)C1(c2cc(Cl)cc(Cl)c2)CC(c2ccc(CBr)c(Cl)c2)=NO1 (stereo not given),94 to 97
17,N#Cc1ccc(CN2CCC(=O)C(C(c3ccc(F)cc3)c3ccc(F)cc3)C2)cc1 (stereo not given),118 to 120
18,COc1ccc(S(=O)(=O)N(Cc2ccccc2)c2c(C(=O)NO)cnc3c2c(C)nn3C)cc1,184 to 186
19,Nc1cc(C=C2c3ccccc3CCc3ccccc32)ccc1O,159
20,O=C(NCc1cccnc1)c1cc(-n2cnn(Cc3ccc(F)cc3)c2=O)[nH]n1,235 to 236
21,Cc1ccc(S(=O)(=O)NCC(=O)N[C@@H](Cc2ccccc2)C(=O)O)cc1 (Tos-Gly-Phe-OH),157 to 161

# Results, then the compound that gave them:
row,melting point [°C],Compound
1,192 to 193,CC(C)Cc1c(C(=O)O)c(C(F)F)nc(C(F)(F)F)c1C(C#N)=C1CCCO1
2,143 to 144,Cc1oc(-c2ccccc2)nc1COc1ccc(CN(O)C(N)=O)cc1F
3,145,CN(c1ccccc1)c1cc(NCc2ccco2)c(C(=O)O)cc1S(N)(=O)=O
4,56 to 58,CC(C)(C)[Si](C)(C)OC1CC(=O)c2cc(F)ccc21 (stereo not given)
5,200 to 201,C=C(C)c1cc(S(=O)(=O)c2ccc(N)cc2)cc(N2CCCC2)n1
6,236 to 238,FC(F)(F)c1ccc(-c2ccc(N3CCCN(c4ccc(-c5ccc(C(F)(F)F)cc5)cn4)CC3)nc2)cc1
7,84 to 85,Cc1ccc2c(Cl)c(Cl)ccc2n1
8,112 to 113,CC(C)(C)[Si](C)(C)Oc1ccc(NC(=O)CBr)cc1
9,75 to 76,NCC(c1ccc(F)cc1)C1CCCCC1O (mixture of isomers)
10,102 to 103,Cc1nc2c(cc1CO)CCCC2=Cc1ccccc1
11,95 to 96,CCCc1nn(-c2ccc(C(F)(F)F)cc2)cc1CCCOc1c(CC(=O)O)cccc1OC
12,80 to 83,COC(=O)c1ccc(CCN(C)CCCC(C#N)(C(=O)OC)c2ccc(OC)c(OC)c2)cc1 (stereo not given)
13,230,Cn1c(Cn2nc(CC(=O)O)c3ccccc3c2=O)nc2ccccc21
14,208 to 210,COC(=O)C1=C(C)NC(C)=C(/C=C/S(=O)(=O)N(C)Cc2ccccc2)C1c1cccc([N+](=O)[O-])c1 (stereo not given)
15,61 to 63,CCC[C@H](CO)Nc1nc(-c2ccc(Br)cc2)cs1
16,> 300,CCCn1c(=O)c2nc(-c3ccc(/C=C/C(=O)O)cc3)[nH]c2n(Cc2ccccc2)c1=O
17,159 to 160,CCC1(CC)COP(=O)(Cc2ccc([N+](=O)[O-])cc2)OC1
18,206,COc1ccc(C2=C(c3ccc(C=CC(=O)O)cc3)c3ccc(OC)cc3CC2)cc1
19,217 to 220,Cn1c(=O)c2c(I)cccc2n2cnc(-c3noc(C4CC4)n3)c12

row,melting point [°C],Compound
1,182 to 184,C=CCc1c(O)ccc2c1CCC(=O)N2CC=C(C)C
2,170 to 171,Cn1cc(C2=C(c3cccc(NCCO)c3)C(=O)NC2=O)c2ccccc21
3,133 to 135,CCCc1c(OCC2COc3c(F)cc(CC(=O)O)cc32)ccc(C(C)=O)c1O (stereo not given)
4,155 to 156,CC(=O)NCC(NC(C)=O)c1ccccc1 (stereo not given)
5,64 to 65,CCC(CC)(CO)CCCCS(N)(=O)=O
6,143 to 145,COCCC(=O)C1(N)C=CC(N(C)C(C)=O)=C(C#N)C1 (stereo not given)
7,132,C#CCn1c(Sc2ccccc2)c(CC)c(=O)[nH]c1=O
8,99 to 100,CCOCc1cnc(NC(=O)C(Cc2ccc(F)cc2)c2ccc(S(C)(=O)=O)cc2)cn1 (stereo not given)
9,87 to 89,COc1ccc2cc(CCCOCCCCCCNCC(O)c3ccc(O)c(NS(C)(=O)=O)c3)ccc2c1 (stereo not given)
10,126 to 128,CCCCC(=O)N1CCN(C(=O)Nc2ccccc2CCc2cc(C(C)(C)C)c(O)c(C(C)(C)C)c2)CC1
11,81,COC(=O)c1cccc(CCC(=O)O)c1
12,268 to 271,C=C1SC(=O)N(c2ccc3cc(-c4ccc(OC)c(C5(C)CCCCC5)c4)ccc3c2)C1=O
13,201 to 203,Nc1c(Br)cc(-c2nc3ccccc3s2)cc1Br
14,63 to 65,CCCCCCCCCCC1SCCCN1C(=S)Nc1cccc(Cl)c1 (stereo not given)
15,118 to 120,O=[N+]([O-])c1ccc(OC[C@@H]2CCCN2c2ccc3ccccc3n2)cc1
16,242 to 245,CCCc1nc2c(N)nc3ccc(-c4cccc(NC(C)=O)c4)cc3c2s1
17,127 to 130,CC(C)C(=O)N[C@@H](CS)C(=O)NCCSC(=O)c1ccccc1
18,226 to 228,Cc1cc(-c2nncc3c(-c4ccco4)c(OCc4ncnn4C)nn23)no1
19,147,CC(C)c1cc(C(=O)O)cc(C(C)C)c1O

row,melting point [°C],Compound
1,108 to 127,CCCCCCCCCCCCCCCCCCNC(=O)NCCN
2,126,N#Cc1cccc2nc(CCC#Cc3ccccn3)oc12
3,164 to 168,CC(O)(C(=O)O)c1ccc2c(c1)Cc1ccccc1-2 (stereo not given)
4,74.5,C=CCC(C#N)(C#N)Cc1ccc(C)cc1
5,150 to 151,"COc1ccc(Sc2ccc3c(c2)CCC2N(C)C(=O)CCC32C)cc1 (single isomer, unassigned; (+))"
6,132,CC(=O)OC1CSC(Oc2cccc(-c3ccc(C)o3)c2)C(OC(C)=O)C1OC(C)=O (stereo not given)
7,193 to 196,Nc1nc(F)cc(F)n1
8,84 to 86,Oc1cc(-n2cc3c(n2)CCCC3)c(Cl)cc1Cl
9,128 to 129,CCCC(C(C)=CC(CNC(=O)Cc1cccnc1)=NO)[N+](=O)[O-] (stereo not given)
10,206 to 207,COc1ccc2cc(CNCCNC(=O)C34CC5CC(CC(C5)C3)C4)oc2c1OC
11,31,CCCCCC1C=CC(c2ccc(F)c(F)c2)=CC1 (stereo not given)
12,178 to 184,NC(=O)c1ccc2[nH]nnc2c1
13,225 to 226,Cc1ccc(C(=O)Nc2c(NC(=O)CN3CCOCC3)ccc3c2C(=O)c2ccccc2C3=O)cc1
14,176,O=C(Nc1ccccc1)N1Cc2cccn2-c2ccsc2C1=O
15,72 to 74,O=C(c1ccccc1)C(CCCCl)c1ccccc1 (stereo not given)
16,51 to 53,O=C(O)CCc1ccc(SCCC(c2ccccc2)(c2ccccc2)c2ccccc2)cc1
17,109 to 110,CC1(C)C=Cc2c(ccc3c2C(=O)C(=O)C=C3)O1
18,200 to 201,CCOCc1nc2c(N)nc3cc(OCc4csc(C)n4)ccc3c2n1CC(C)(C)O
19,185 to 187,O=c1[nH]c2ccccc2n1CCCN1CCC(c2nsc3ccccc23)CC1

# Source: a melting point compilation (Tetko et al.; mined from patent text by program, amines drawn as free bases though some values may be those of a salt)
